Results reported in ChEMBL document CHEMBL1137669, “BK Virus replication in vitro: limited effect of drugs interfering with viral uptake and intracellular transport” (Antimicrob Agents Chemother, 2007).

Legend:
[1] = test system: BK polyomavirus; test: Antiviral activity against BKV Gardner ATCC VR837 infected in human WI38 cells assessed as reduction in viral DNA level preincubated for 2 hrs before viral infection measured after 7 days by real time PCR assay; format: functional, organism-based, Betapolyomavirus hominis, WI-38
[2] = Cytotoxicity against human WI38 cells assessed as reduction in cellular DNA level preincubated for 2 hrs before viral infection measured after 7 days by real time PCR assay; format: cell-based, WI-38; conditions: for CC50 at 168 h: WI38 cells
[3] = Selectivity index, ratio of CC50 for human WI38 cells preincubated for 2 hrs before viral infection measured after 7 days by real time PCR assay to EC50 for BKV Gardner ATCC VR837; format: toxicity, cell-based, WI-38; conditions: for selectivity ratio at 168 h: WI38 cells, read-out: Ratio CC50/EC50
[4] = Cytotoxicity against human WI38 cells assessed as reduction in cellular DNA level at 6.25 uM preincubated for 2 hrs before viral infection measured after 7 days by real time PCR assay; format: cell-based; conditions: wi-38, 168 h
[5] = Cytotoxicity against human WI38 cells assessed as reduction in cellular DNA level after 7 days by real time PCR assay; format: cell-based, WI-38
[6] = Cytotoxicity against human WI38 cells by conventional neutral red assay; format: cell-based, WI-38
[7] = Selectivity index, ratio of CC50 for human WI38 cells by conventional neutral red assay to EC50 for BKV Gardner ATCC VR837; format: toxicity, cell-based, WI-38; conditions: read-out: Ratio CC50/EC50
[8] = Selectivity index, ratio of CC50 for human WI38 cells after 7 days by real time PCR assay to EC50 for BKV Gardner ATCC VR837; format: toxicity, cell-based, WI-38; conditions: read-out: Ratio CC50/EC50
[9] = test system: BK polyomavirus; test: Antiviral activity against BKV Gardner ATCC VR837 infected in human WI38 cells assessed as reduction in viral DNA level after 7 days by real time PCR assay; format: functional, organism-based; conditions: Betapolyomavirus hominis, WI-38, 168 h
[10] = Betapolyomavirus hominis, Gardner, WI-38

Molecule | EC50 [1, 10] [µM] | CC50 at 168 h [2] [µM] | selectivity ratio at 168 h [3] | further results
CO[C@H]1O[C@H](CO)[C@@H](O)[C@H](O)[C@@H]1O | > 100 | > 100 | – | –
CC(=O)OC[C@H]1OC[C@H](OC(C)=O)[C@@H](OC(C)=O)[C@@H]1OC(C)=O | > 100 | > 100 | – | –
O=C(O)[C@H]1OC(O)[C@H](O)[C@@H](O)[C@@H]1O (some centres undefined) | > 100 | > 100 | – | –
COC(=O)[C@H]1O[C@@H](OC(C)=O)[C@H](OC(C)=O)[C@@H](OC(C)=O)[C@@H]1OC(C)=O | > 100 | > 100 | – | –
CC(=O)OC[C@H]1OC[C@H](OC(C)=O)[C@@H](OC(C)=O)[C@H]1OC(C)=O | > 100 | > 100 | – | –
C[C@@H]1[C@H](O)[C@@H](C)/C=C/C=C/C=C/C=C/C=C/C=C/C=C/[C@H](O[C@@H]2O[C@H](C)[C@@H](O)[C@H](N)[C@@H]2O)C[C@@H]2O[C@](O)(C[C@@H](O)C[C@@H](O)[C@H](O)CC[C@@H](O)C[C@@H](O)CC(=O)O[C@H]1C)C[C@H](O)[C@H]2C(=O)O [AMPHOTERICIN B] | 1.67 | 4.99 | 2.99 | Activity [4]: Active
O=C1Cc2cc(CCN3CCN(c4nsc5ccccc45)CC3)c(Cl)cc2N1 [ZIPRASIDONE] | > 100 | > 100 | – | –
NYSTATIN | – | – | – | Ratio CC50/EC50 ([3]; wi-38, 168 h): 5.13; EC50 ([1]; wi-38): 9.81 µM; CC50 ([2]; wi-38, 168 h): 48.6 µM
COc1cc2c(c(OC)c1OC)-c1ccc(OC)c(=O)cc1[C@@H](NC(C)=O)CC2 [COLCHICINE] | 0.022 | 0.0476 | 3.63 | –
O=C1OC([C@@H](O)CO)[C@H](O)[C@@H]1O (some centres undefined) | > 100 | > 100 | – | –
CCN(CC)CCCC(C)Nc1ccnc2cc(Cl)ccc12 (centres undefined) [CHLOROQUINE] | 1.7 | 8.5 | 5.32 | –
CN1CCN(C2=Nc3cc(Cl)ccc3Nc3ccccc32)CC1 [CLOZAPINE] | 23.3 | 40 | 4.9 | –
COC(=O)[C@H]1O[C@@H](O)[C@H](O)[C@@H](O)[C@H]1O | > 100 | > 100 | – | –
CN(C)CCCN1c2ccccc2Sc2ccc(Cl)cc21 [CHLORPROMAZINE] | 7.6 | 10.3 | 1.98 | –
Cc1cc2c(s1)Nc1ccccc1N=C2N1CCN(C)CC1 [OLANZAPINE] | > 100 | > 100 | – | –
CCCCCCCCCO[C@@H]1O[C@H](CO)[C@@H](O)[C@H](O)[C@H]1O | 6.35 | 78.3 | 16 | CC50 at 168 h [5]: 114 µM; CC50 [6]: 126 µM; selectivity ratio [7]: 30.5; selectivity ratio at 168 h [8]: 1.25; EC50 [9]: 98.3 µM
CCCCCCCCO[C@@H]1O[C@H](CO)[C@@H](O)[C@H](O)[C@H]1O | > 100 | > 100 | – | –
Cc1nc2n(c(=O)c1CCN1CCC(c3noc4cc(F)ccc34)CC1)CCCC2 [RISPERIDONE] | > 25 | 25 | – | –
